Measurements from patent US6905706B2, “Medicinal herbal extract carpediol for treating depression” (Swedish Herbal Institute, priority 2002, dated 2005).

Test: Effect of co-administered extracts on the pharmacokinetics of theophylline in rats
Details: male, Wistar, rat, in vivo; for Cmax: Cmax of Theophylline; for AUC(0-inf): AUC0-∞ of Theophylline; for MRT: MRT of Theophylline
Method: Carpediol spissum (Batch No Ex 20404); Swedish Herbal Institute, Gothenburg, Sweden) as described above in Example 1. […] It was analyzed for purity by HPLC, Capillary electrophoresis, ^1H-NMR and ^13C-NMR. • (e) Internal standard: Methyl-4-hydroxybenzoate 99%, F.W. 152.15 Aldrich. • (f) Water, demonized and distilled. • (g) Water for High Performance Capillary Electrophoresis (HPCE), HEWLETT-PACKARD. • (h) Buffer pH=9.3 for HPCE (50 mM Borate). • (i) 0.1N Sodium Hydroxide Solution for HPCE. • (j) Chloroform HPLC grade. • (k) 2-Propanol spectrophotometric grade. • (l) Methanol Chromasorv.
Animals—In this study, 144 time-mated male Wistar rats were used. Breeder: Institute of Fine Organic Chemistry of the National Academy of Science, Yerevan. The initial weight of the animals: 130-170 g (mean weight 149.93±12.4 g). […] All animals were clinically examined upon arrival and any animal showing signs of abnormality or disease was excluded. Animals considered unsuitable for the study were replaced before the start. No animal was replaced following the start of the study.
Dosage and Administration—An appropriate amount of herbal extract was dissolved in distilled water and given at 10:00-10:30 am by oral gavage. Suspensions were shaken gently before oral administration. Suspensions were prepared fresh every day. Control animals were given an appropriate volume of drinking water. Blood samples from rats receiving the carrier only were also analyzed.
Groups of six animals were treated orally with water (10 ml×2 times per day) for three days. 60 minutes after last administration of water, a solution of Aminophylline (10 ml/kg) was given to each animal in dose of 240 mg/kg (corresponding to 192 mg/kg of Theophylline) and blood samples were taken 0.25, 0.5, 1.0, 2.0, 4.0, 6.0 and 8.0 hours after the theophylline administration. A separate group of animals was used for each time point.
It was administered orally in a volume of 10 ml/kg of body weight. Freshly prepared extract was administered two times daily for 3 consecutive days. Single dose—25 mg/kg, daily dose—50 mg/kg. 60 minutes after last administration, a water solution of Aminophylline (10 ml/kg) was given to each animal in dose of 240 mg/kg (corresponding to 192 mg/kg of Theophylline) and blood samples were taken 0.25, 0.5, 1.0, 2.0, 4.0, 6.0 and 8.0 hours after the theophylline administration. A separate group of animals was used for each time point.
One tablet of Jarsin 300 was suspended in 10 ml of water and administered two times daily for 3 consecutive days. 60 minutes after last administration, water solution of Aminophylline (10 ml/kg) was given to each animal in dose of 240 mg/kg (corresponding to 192 mg/kg of Theophylline) and blood samples were taken 0.25, 0.5, 1.0, 2.0, 4.0, 6.0 and 8.0 hours after the theophylline administration. A separate group of animals was used for each time point.
Sampling of blood and sample preparation—Animals were sacrificed by laboratory guillotine. Following decapitation, blood was collected separately in centrifuge tubes and centrifuged at 3000 rpm for 10 min. Blood serum was separated and 50 μl was taken for theophylline assay. Conservation of the samples: the centrifuge tubes were closed with caps, frozen and stored in a freezer for 1-3 days prior to bio-assay.
Analytical Method: Capillary Electrophoresis—A modified capillary electrophoresis method was used, using an internal standard and as a mobile phase 50 mM borate buffer (pH 9.3) without SDS.
Pre-assay preparation—The Ramzan et al. method (52) of extraction of theophylline from serum was modified as follows. 50 μl of blood serum was added to 10 μl of an internal standard methanol solution (methyl-paraben, 60 μg/ml) in centrifuge tube to obtain final concentration of methyl paraben 10 μg/ml. The solution was vortexed vigorously for 10 sec and 1 ml of solvent system of isopropanol. and chloroform in a 5:95 ratio was added for extraction.

[1] = Concentration of Theophylline in Rat Serum, Mean, Group 2 (CRE pretreatment 3 days), aminophylline 240 mg/kg p.o., mean n=6
[2] = Concentration of Theophylline in Rat Serum, Mean, Group 3 (Jarsin 300 pretreatment 3 days), aminophylline 240 mg/kg p.o., mean n=6
[3] = po, 240 mg/kg, Group 2 (CRE pretreatment), rats, calculated by mean concentrations
[4] = po, 240 mg/kg, Mean, Group 1 (water control), rats, mean of 6 series (column A)
[5] = po, 240 mg/kg, Mean, Group 2 (CRE pretreatment), rats, mean of 6 series (column A)
[6] = po, 240 mg/kg, Mean, Group 3 (Jarsin 300 pretreatment), rats, mean of 6 series (column A)
[7] = po, Group 3 (Jarsin 300 pretreatment), rats, calculated by mean concentrations
[8] = po, Mean, Group 3 (Jarsin 300 pretreatment), rats, mean of 6 series (column A)
[9] = po, Mean, Group 2 (CRE pretreatment), rats, mean of 6 series (column A)

Cn1c(=O)c2[nH]cnc2n(C)c1=O [Theophylline, 1,3-dimethylxantin]
concentration at 480 min (240 mg/kg, Level of theophylline in serum after 480 minutes, Group 1 (water control), rats): ~51000 ng/mL
Cmax (Group 2 (CRE pretreatment), rats, calculated by mean concentrations, 60 minutes): 142 µg/mL
Cmax (Group 3 (Jarsin 300 pretreatment), rats, calculated by mean concentrations, 60 minutes): 41.6 µg/mL
concentration at 60 min (Concentration of Theophylline in Rat Serum, Group 2 (CRE pretreatment 3 days), aminophylline 240 mg/kg p.o., single rat): 109 µg/mL
concentration at 15 min (Concentration of Theophylline in Rat Serum, Group 3 (Jarsin 300 pretreatment 3 days), aminophylline 240 mg/kg p.o., single rat): 6640 ng/mL
concentration at 15 min [1]: 128000 ng/mL
concentration at 30 min [1]: 138 µg/mL
concentration at 60 min [1]: 142 µg/mL
concentration at 120 min [1]: 130 µg/mL
concentration at 240 min [1]: 103 µg/mL
concentration at 360 min [1]: 71000 ng/mL
concentration at 480 min (Concentration of Theophylline in Rat Serum, Mean, Group 2 (CRE pretreatment 3 days), aminophylline 240 mg/kg p.o., 480 min, mean n=6): 31800 ng/mL
concentration at 15 min [2]: 5170 ng/mL
concentration at 30 min [2]: 25.5 µg/mL
concentration at 60 min [2]: 41.6 µg/mL
concentration at 120 min [2]: 31.1 µg/mL
concentration at 240 min [2]: 16.5 µg/mL
concentration at 360 min [2]: 15700 ng/mL
concentration at 480 min (Concentration of Theophylline in Rat Serum, Mean, Group 3 (Jarsin 300 pretreatment 3 days), aminophylline 240 mg/kg p.o., 480 min, mean n=6): 9280 ng/mL
concentration at 480 min (Theophylline concentration in serum after 480 minutes, Group 2 (rats treated with CRE)): ~32000 ng/mL
concentration at 480 min (Theophylline concentration in serum after 480 minutes, Group 3 (rats treated with Jarsin 300)): ~9300 ng/mL
AUC(0-inf) (po, 240 mg/kg, Group 1 (water control), rats, single series): 1090 µg·h/mL
AUC(0-inf) [3]: 956 µg·h/mL
AUC(0-inf) (po, 240 mg/kg, Mean, Group 1 (water control), rats, mean of 6 series): 1020 µg·h/mL
AUC(0-inf) [4]: 1020 ± 109 µg·h/mL
AUC(0-inf) [5]: 920 ± 128 µg·h/mL
AUC(0-inf) (po, 240 mg/kg, Mean, Group 3 (Jarsin 300 pretreatment), rats, mean of 6 series): 214 µg·h/mL
Cmax [4]: 195 µg/mL
Cmax [5]: 169 ± 14.4 µg/mL
Cmax [6]: 43.9 µg/mL
MRT (po, 240 mg/kg, Group 1 (water control), rats, calculated by mean concentrations): 6.83 h
MRT [3]: 5.14 h
MRT [4]: 6.62 h
MRT [5]: 4.45 ± 0.696 h
MRT [6]: 5.44 h
half-life (po, 240 mg/kg, T1/2 of Theophylline, Group 1 (water control), rats, calculated by mean concentrations): 279 min
half-life (po, 240 mg/kg, T1/2 of Theophylline, Group 2 (CRE pretreatment), rats, calculated by mean concentrations): 204 min
half-life (po, 240 mg/kg, T1/2 of Theophylline, Mean, Group 2 (CRE pretreatment), rats, mean of 6 series (column A)): 169 ± 24.2 min
half-life (po, 240 mg/kg, t1/2 of Theophylline, Mean, Group 1 (water control), rats, mean of 6 series (column A)): 270 min
half-life (po, 240 mg/kg, t1/2 of Theophylline, Mean, Group 3 (Jarsin 300 pretreatment), rats, mean of 6 series (column A)): 213 min
AUC(0-inf) (po, Group 1 (water control), rats, calculated by mean concentrations): 1030 µg·h/mL
AUC(0-inf) [7]: 208 µg·h/mL
AUC(0-inf) (po, Mean, Group 2 (CRE pretreatment), rats, mean of 6 series): 920 µg·h/mL
AUC(0-inf) [8]: 214 ± 31 µg·h/mL
Cmax (po, Group 2 (CRE pretreatment), rats, single series): 158 µg/mL
Cmax (po, Group 3 (Jarsin 300 pretreatment), rats, calculated by mean concentrations, 60 minutes): 41.6 µg/mL
Cmax [9]: 169 µg/mL
Cmax [8]: 43.9 ± 8.49 µg/mL
MRT [7]: 5.36 h
MRT [9]: 4.45 h
MRT [8]: 5.44 ± 0.559 h
half-life (po, T1/2 of Theophylline, Group 3 (Jarsin 300 pretreatment), rats, calculated by mean concentrations): 206 min
half-life (po, T1/2 of Theophylline, Mean, Group 2 (CRE pretreatment), rats, mean of 6 series (column A)): 169 min
half-life (po, t1/2 of Theophylline, Mean, Group 3 (Jarsin 300 pretreatment), rats, mean of 6 series (column A)): 213 ± 32.9 min
